Where two headings read alike, the source gives them in different places.
What was measured:
[1] = in vivo, po
[2] = in vitro; type: in vitro ADME; conditions: s9, pH 7.4
Method: Duplicate aliquots of test compound or positive control substrate (GS-7340) were added to S9 stock diluted with 100 mM potassium phosphate buffer, pH 7.4, to obtain a protein concentration of 2.4 mg/mL. The S9 metabolic reactions were initiated by the addition of the substrates to the S9 reaction mixture to a final concentration of 2 μM. At 2, 12, 25, 45, 65 and 90 min, 25 μL aliquots of the reaction mixture were transferred to plates containing 225 μl of IS/Q solution. After quenching, the plates were centrifuged at 3000×g for 30 minutes, and 150 μl, aliquots of each supernatant were diluted with 150 μl, water. Aliquots (10 μL) of the diluted supernatant were analyzed on a Thermo Q-Exactive mass spectrometer as described below.
Quantification of test compounds and controls was performed by analyte/internal standard peak area ratio (PAR) values measured on a Thermo Q-Exactive mass spectrometer coupled to a Dionex UltiMate 3000 HPLC with a Leap Technologies HTC PAL autosampler. The column used was a Thermo Hypersil GOLD (1.9 μm particle size, 2.1×50 mm). Mobile phase A consisted of 0.1% (v/v) formic acid in water. Mobile phase B consisted of 0.1% (v/v) formic acid in acetonitrile. Elution of analytes was achieved by a series of linear gradients of acetonitrile in water containing 0.1% (v/v) formic acid. The mass spectrometer was calibrated on a weekly basis and mass tolerance of 5 ppm was used.

[3] = system: SARS-CoV-2 WA1/2020 A; test: microbe, parasite or virus in culture; type: cell-based; conditions: Severe acute respiratory syndrome coronavirus 2, Vero C1008
[4] = Plasma stability; conditions: human
[5] = system: SARS-CoV-2 CA/2020; test: microbe, parasite or virus in culture; type: cell-based; conditions: Severe acute respiratory syndrome coronavirus 2, Vero C1008
[6] = male, Sprague-Dawley, rat, in vivo, po, 8 mg/kg
[7] = molecular target: T1, CES2 (Homo sapiens, UniProt O00748); test: CES1/2 stability, CES2; type: in vitro ADME; conditions: CES2 Supersome preparation; Supersome preparations, CES 1.5 mg/ml, 2 μM substrate, pH 7.4, 37° C.; read-out: CES2 T1/2
T1 construct: purchased
T1 sequence (O00748 27-559): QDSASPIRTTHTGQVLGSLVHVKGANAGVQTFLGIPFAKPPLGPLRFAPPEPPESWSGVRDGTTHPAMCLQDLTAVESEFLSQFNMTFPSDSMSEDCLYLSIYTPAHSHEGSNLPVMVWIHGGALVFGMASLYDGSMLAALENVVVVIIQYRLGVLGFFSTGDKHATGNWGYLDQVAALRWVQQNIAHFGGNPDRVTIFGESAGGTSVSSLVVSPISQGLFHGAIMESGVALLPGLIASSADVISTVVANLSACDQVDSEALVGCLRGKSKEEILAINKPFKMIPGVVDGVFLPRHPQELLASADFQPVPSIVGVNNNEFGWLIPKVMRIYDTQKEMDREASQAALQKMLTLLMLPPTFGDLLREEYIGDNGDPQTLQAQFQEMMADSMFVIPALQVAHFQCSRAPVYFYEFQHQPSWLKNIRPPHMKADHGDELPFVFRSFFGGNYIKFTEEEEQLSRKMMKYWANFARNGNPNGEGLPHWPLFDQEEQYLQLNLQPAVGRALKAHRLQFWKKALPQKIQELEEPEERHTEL
Method: Test compounds or positive control substrates (oseltamivir for CES1 enzymes or procaine for CES2) were incubated with individual Supersome preparations (final CES concentration 1.5 mg/ml) in 0.1 M potassium phosphate buffer (pH 7.4) at 37° C. Substrates were added to a final concentration of 2 μM to initiate the reaction. The final incubation volume was 250 μL. Aliquots were removed after incubation for 0, 10, 30, 60 and 120 min. The reactions were stopped by the addition of IS/Q. Following protein precipitation and centrifugation, 150 μL of supernatant was diluted with an equal volume of water prior to LC-MS analysis. For procaine 150 μL of supernatant was dried down and reconstituted with 250 μL water. All samples were analyzed by LC-MS and the PAR values were used for quantification.

[8] = system: SARS-CoV-2 hCoV-19/Japan/TY7-503/2021 (BZ/2021); type: in vivo
[9] = system: SARS-CoV-2 (WA1); type: in vivo, AGM
[10] = system: SARS-CoV-2-Nluc viruses; test: microbe, parasite or virus in culture; type: cell-based
[11] = system: SARS-CoV-2 SA/2020 B.1.351; test: microbe, parasite or virus in culture; type: cell-based; conditions: Severe acute respiratory syndrome coronavirus 2, Vero C1008
[12] = system: SARS-CoV-2 2019-nCoV/USA-WA1/2020; type: in vivo
[13] = in vitro; conditions: human, PrestoBlue
[14] = in vivo, po; remark: listed apart in the source
[15] = […], Compound 1 10 mg/kg and 3 mg/kg, EIDD-2801/molnupiravir 5 mg/kg

In the case of `CC(C)C(=O)OC[C@H]1O[C@@](C#N)(c2ccc3c(N)ncnn23)[C@H](OC(=O)C(C)C)[C@@H]1OC(=O)C(C)C` [Compound 1, (2R,3R,4R,5R)-2-(4-aminopyrrolo[2,1-f][1,2,4]triazin-7-yl)-2-cyano-5-((isobutyryloxy)methyl)tetrahydrofuran-3,4-diyl bis(2-methylpropanoate)], the “anabolism to bioactive Reference Compound B (in words)” value [1] is reported as “efficient anabolism to bioactive Reference Compound B”, the half-life at 2 μM [2] is reported as 2 min and the EC50 [3] is reported as 0.73 µM. For the same compound, the half-life at 2 μM [4] was 5.5 min, the EC50 [5] was 0.21 µM and the Cmax [6] was 5.83 µM. For the same compound, the half-life at 2 μM [7] was under 1 min, the “Infectious viral particles in nasal turbinates of contact animals” value ([8]; […], 5.5 days after initiation of co-housing) was “absent” and the “Shedding of infectious particles or viral RNA by contacts of treated source ferrets” value ([8]; […], source animals oral 10 mg/kg b.i.d.) was “None of the contacts of treated source ferrets shed infectious particles or viral RNA at any time”. The “Viral RNA in nasal turbinates of the contact animals” value ([8]; in vivo) was < 10^5 copies/g nasal turbinate, the “Lowering of viral RNA copies in nasal lavages and turbinates” value ([8]; in vivo, po, 10 mg/kg) was “over three orders of magnitude” and the “Shed virus burden (nasal lavage)” value ([8]; in vivo, po, 10 mg/kg) was “undetectable”. For the same compound, the “Tissue titers (nasal turbinates)” value ([8]; in vivo, po, 10 mg/kg) was “undetectable”, the “Infectious SARS-CoV-2 titers versus vehicle” value ([9]; AGMs, PO 60 or 120 mg/kg QD, days 2-6) was “trended lower than the vehicle group” and the “Viral RNA loads in lower lung tissue versus vehicle” value ([9]; AGMs, PO 60 or 120 mg/kg QD, terminal day 6) was “trended lower”. The “mean SARS-CoV-2 gRNA in BALF versus vehicle” value ([9]; in vivo, po) was “significantly reduced”, the “SARS-CoV-2 gRNA in BALF versus vehicle” value ([9]; in vivo, po, 60 mg/kg) was “significantly lower than vehicle animals” and the EC50 ([10]; Severe acute respiratory syndrome coronavirus 2, 48 h, read-out: SARS-CoV2 EC50) was 2.7 µM. For the same compound, the EC50 ([10]; Severe acute respiratory syndrome coronavirus 2, host cells A549-ACE2, read-out: EC50, WA1/2020-nano luciferase) was 0.98 µM, the EC50 [11] was 0.11 µM and the “Clinical signs versus vehicle animals” value [12, 15] was “No significant differences in clinical signs”. For the same compound, the “Virus burden in the turbinates” value [12, 15] was “reduced burden in the turbinates”, the “Shed virus load (nasal lavages) versus vehicle” value ([12]; […], Compound 1 10 mg/kg and 3 mg/kg, EIDD-2801/molnupiravir 5 mg/kg, within 12 hours of treatment onset) was “lower in all treated animals than in the vehicle group” and the “Viral RNA copies in nasal lavages and turbinates versus vehicle” value ([12]; […], Compound 1 10 mg/kg, EIDD-2801/molnupiravir 5 mg/kg) was “statistically significant mean reduction”. The “Clinical signs (body temperature, weight gain)” value ([12]; in vivo, po, 20 mg/kg) was “only animals of the vehicle group showed elevated body temperature”, the “Shed SARS-CoV-2 load in nasal lavages” value ([12]; in vivo, po, 20 mg/kg) was “transiently detectable in lavages of only one ferret” and the “Viral RNA copy numbers in turbinates, difference between vehicle and treatment groups” value ([12]; in vivo, po, 20 mg/kg) was “three”. The “Virus in nasal turbinates 4 days after infection” value ([12]; in vivo, po, 20 mg/kg) was “undetectable”, the CC50 ([13]; CC50, DF2 HAE, primary diseased (asthma) HAE donor DF2, 72 hours) was 86 µM and the CC50 ([13]; CC50, F2 HAE, primary HAE donor F2, 72 hours) was 43.8 µM. The CC50 ([13]; CC50, F3 HAE, primary HAE donor F3, 72 hours) was 43.8 µM, the CC50 ([13]; CC50, M2 HAE, primary HAE donor M2, 72 hours) was 39.7 µM and the CC50 ([13]; CC50, M6 HAE, primary HAE donor M6, 72 hours) was 92.3 µM. The “Compound 1 concentration transiently observed” value ([14]; ferret, 30 mg/kg) was “^aapproximately 10 nM Compound 1 transiently observed in first two hours”, the “oral bioavailability (in words)” value [14] was “excellent oral bioavailability” and the Cmax ([14]; 30 mg/kg) was 15.8 ± 4.7 µM.
